Results: US20250255882A1, “TREATMENT OF CARDIAC CONDITION RELATED COGNITIVE DYSFUNCTION” (The Trustees of Columbia University in the City of New York, priority 2024, published 2025)

Experiments:
[1] = test system: mouse model of HF (myocardial infarction, MI); assay: MWM test (long-term spatial learning and memory) with probe trial; type: in vivo; conditions: MI mice, treated; for target crossings / time spent in the target quadrant: 60-s probe trial day 5; for target crossings: MI 2.4±0.3, SHAM 4.6±0.3; for time spent in the target quadrant: MI 17±1 s, SHAM 25±2 s; for latency to find and reach the hidden platform: day 4 training trials, MI 30±1 s, SHAM 21±2 s
Method: One-way analysis of variance (ANOVA) was used to compare the difference between the six groups in FIGS. 2B, 2C, 2E and 2F. Tukey's test was used for multiple comparisons; two-way ANOVA was used in FIG. 2D. […] All statistical tests were two sided with the data derived from biologically independent samples.
A MWM test was performed to assess hippocampal-dependent long-term spatial learning and memory.
A probe trial was performed on day 5 of the MWM test.

hippocampal RyR2 [2] = target: T1, hippocampal RyR2 (Mus musculus, UniProt E9Q401); assay: SDS-PAGE analysis of modified RyR2 and calstabin2 immunoprecipitated from hippocampal RyR2 complex; type: in vivo; conditions: hippocampi of treated MI mice
T1 construct: Hippocampal RyR2 was immunoprecipitated and immunoblotted to detect PTMs; from tissue; host or cells: mouse hippocampus (SHAM / MI mice, treated in vivo)
T1 sequence (E9Q401 whole entry): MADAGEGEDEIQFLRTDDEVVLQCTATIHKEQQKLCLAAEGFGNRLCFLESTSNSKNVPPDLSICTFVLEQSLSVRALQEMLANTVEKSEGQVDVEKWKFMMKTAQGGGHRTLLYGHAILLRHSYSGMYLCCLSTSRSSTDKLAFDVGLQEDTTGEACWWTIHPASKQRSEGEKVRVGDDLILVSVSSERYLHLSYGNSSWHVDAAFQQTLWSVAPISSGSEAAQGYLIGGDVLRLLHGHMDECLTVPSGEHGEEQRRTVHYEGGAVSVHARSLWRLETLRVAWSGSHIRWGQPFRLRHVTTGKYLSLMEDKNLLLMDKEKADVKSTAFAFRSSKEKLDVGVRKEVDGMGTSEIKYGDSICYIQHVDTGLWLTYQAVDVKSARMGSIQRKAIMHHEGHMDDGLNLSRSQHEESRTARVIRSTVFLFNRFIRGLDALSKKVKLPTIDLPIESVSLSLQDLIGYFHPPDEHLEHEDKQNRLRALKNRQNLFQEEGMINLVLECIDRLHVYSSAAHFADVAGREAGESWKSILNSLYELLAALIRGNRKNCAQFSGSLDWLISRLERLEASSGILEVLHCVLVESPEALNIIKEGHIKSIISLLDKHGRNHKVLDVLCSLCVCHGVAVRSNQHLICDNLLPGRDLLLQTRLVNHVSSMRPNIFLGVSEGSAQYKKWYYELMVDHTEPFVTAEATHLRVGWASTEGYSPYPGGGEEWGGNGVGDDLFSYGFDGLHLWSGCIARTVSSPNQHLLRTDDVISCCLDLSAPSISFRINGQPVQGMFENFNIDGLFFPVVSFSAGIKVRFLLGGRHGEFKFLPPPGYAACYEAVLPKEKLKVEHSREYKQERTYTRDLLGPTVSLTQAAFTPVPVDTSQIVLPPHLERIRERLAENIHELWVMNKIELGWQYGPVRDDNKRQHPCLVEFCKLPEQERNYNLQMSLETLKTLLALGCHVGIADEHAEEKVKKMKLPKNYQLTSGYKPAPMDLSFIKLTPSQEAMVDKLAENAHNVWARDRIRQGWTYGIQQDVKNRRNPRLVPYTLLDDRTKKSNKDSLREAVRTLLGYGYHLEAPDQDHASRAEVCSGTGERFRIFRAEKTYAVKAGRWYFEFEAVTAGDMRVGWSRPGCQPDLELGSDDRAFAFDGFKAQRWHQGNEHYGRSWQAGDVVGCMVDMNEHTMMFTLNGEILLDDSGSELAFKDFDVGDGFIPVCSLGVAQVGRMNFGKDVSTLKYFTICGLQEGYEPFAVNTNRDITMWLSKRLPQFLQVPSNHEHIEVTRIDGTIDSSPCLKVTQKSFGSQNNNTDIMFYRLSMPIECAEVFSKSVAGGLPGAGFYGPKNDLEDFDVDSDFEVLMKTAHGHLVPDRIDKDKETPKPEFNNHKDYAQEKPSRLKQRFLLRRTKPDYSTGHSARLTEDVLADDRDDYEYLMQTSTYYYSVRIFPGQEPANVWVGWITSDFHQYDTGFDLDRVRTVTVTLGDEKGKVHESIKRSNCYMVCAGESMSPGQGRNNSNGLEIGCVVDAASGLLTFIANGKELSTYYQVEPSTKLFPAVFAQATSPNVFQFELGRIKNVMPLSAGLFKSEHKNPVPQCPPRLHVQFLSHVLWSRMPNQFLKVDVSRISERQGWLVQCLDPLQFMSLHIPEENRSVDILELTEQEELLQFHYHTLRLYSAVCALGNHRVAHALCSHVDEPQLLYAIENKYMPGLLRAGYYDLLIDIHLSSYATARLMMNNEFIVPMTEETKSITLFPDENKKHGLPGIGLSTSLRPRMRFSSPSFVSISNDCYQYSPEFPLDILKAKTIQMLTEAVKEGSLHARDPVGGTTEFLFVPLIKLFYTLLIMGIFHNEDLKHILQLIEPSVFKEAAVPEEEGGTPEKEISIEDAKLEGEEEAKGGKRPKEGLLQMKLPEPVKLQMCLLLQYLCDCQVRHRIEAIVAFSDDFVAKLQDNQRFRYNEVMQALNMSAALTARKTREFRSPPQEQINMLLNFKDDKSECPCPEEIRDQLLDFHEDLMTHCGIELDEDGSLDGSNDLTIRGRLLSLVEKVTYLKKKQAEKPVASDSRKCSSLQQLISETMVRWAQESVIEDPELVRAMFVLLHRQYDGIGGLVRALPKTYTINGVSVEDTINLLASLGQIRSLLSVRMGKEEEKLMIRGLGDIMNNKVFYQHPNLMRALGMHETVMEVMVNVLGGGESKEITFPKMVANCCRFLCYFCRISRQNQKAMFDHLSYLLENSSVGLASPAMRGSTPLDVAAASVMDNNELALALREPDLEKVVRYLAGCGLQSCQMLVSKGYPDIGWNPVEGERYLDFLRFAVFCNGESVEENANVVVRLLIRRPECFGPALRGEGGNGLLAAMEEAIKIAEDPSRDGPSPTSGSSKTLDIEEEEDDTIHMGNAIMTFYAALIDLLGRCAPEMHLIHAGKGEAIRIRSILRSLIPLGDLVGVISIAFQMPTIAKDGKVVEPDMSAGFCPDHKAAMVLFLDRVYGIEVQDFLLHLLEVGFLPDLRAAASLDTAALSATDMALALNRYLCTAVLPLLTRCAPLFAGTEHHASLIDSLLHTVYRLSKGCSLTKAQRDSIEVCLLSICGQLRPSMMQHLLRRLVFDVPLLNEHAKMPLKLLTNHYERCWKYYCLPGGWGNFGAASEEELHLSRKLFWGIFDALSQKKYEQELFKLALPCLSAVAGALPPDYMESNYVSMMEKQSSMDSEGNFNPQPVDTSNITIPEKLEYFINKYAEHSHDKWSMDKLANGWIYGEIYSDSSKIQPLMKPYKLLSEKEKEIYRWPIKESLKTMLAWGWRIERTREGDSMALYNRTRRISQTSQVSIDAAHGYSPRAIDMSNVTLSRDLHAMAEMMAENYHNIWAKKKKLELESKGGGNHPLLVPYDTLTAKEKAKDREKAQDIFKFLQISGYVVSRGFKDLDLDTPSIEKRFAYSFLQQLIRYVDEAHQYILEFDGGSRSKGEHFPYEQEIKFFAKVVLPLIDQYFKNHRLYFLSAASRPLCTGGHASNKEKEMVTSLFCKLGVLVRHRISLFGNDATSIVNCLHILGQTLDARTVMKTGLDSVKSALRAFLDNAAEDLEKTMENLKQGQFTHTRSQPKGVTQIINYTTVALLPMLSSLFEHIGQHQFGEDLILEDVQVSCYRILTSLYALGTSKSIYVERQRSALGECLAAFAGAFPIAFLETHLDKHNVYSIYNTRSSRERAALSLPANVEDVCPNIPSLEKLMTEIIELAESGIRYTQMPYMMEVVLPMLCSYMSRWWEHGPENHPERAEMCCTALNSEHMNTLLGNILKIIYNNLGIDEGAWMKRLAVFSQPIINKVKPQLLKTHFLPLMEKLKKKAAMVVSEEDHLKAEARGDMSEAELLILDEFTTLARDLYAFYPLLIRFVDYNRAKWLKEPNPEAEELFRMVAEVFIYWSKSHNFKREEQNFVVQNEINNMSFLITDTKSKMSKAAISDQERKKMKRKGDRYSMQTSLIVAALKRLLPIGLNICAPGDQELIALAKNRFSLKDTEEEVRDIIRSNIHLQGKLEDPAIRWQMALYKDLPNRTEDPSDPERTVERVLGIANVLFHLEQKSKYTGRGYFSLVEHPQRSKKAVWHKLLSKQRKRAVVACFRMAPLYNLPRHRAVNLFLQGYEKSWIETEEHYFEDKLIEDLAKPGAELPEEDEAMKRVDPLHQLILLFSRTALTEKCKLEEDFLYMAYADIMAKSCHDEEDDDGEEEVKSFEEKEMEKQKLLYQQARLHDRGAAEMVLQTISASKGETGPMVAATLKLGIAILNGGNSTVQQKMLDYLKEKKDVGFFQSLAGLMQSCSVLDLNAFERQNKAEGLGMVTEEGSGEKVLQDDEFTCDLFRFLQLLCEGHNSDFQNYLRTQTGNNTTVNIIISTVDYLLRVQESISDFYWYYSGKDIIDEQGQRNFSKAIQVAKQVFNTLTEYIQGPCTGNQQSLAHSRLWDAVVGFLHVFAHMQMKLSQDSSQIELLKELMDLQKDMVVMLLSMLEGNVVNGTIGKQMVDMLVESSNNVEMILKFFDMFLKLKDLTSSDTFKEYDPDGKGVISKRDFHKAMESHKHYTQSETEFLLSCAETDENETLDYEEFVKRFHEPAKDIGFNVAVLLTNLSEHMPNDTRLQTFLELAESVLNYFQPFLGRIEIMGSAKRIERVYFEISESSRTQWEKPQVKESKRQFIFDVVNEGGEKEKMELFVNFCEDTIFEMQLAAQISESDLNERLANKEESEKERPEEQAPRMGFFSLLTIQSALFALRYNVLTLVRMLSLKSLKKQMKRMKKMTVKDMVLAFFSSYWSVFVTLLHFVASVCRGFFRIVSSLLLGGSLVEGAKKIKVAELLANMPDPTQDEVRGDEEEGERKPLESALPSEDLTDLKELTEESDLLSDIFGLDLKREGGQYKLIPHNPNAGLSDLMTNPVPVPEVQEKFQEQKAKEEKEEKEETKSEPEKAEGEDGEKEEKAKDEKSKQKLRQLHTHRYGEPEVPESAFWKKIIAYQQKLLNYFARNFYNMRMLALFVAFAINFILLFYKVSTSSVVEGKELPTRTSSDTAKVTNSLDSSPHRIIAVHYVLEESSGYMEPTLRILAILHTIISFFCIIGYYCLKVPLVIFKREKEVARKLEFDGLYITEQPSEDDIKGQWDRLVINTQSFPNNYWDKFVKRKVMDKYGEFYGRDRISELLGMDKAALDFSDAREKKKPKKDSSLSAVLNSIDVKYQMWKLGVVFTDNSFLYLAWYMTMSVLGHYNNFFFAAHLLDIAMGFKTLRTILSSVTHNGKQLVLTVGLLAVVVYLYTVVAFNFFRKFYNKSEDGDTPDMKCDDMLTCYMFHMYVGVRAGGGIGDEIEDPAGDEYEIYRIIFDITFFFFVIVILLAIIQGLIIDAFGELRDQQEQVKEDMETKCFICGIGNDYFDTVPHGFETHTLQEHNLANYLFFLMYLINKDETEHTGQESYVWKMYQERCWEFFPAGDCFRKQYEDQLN
T1 sequence (Q9Z2I2 whole entry partner): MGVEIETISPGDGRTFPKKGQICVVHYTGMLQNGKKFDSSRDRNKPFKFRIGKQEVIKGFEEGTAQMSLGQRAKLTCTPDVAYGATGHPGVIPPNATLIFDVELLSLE
Method: FIGS. 3A-3G illustrate a mouse model of heart failure that is associated with leaky hippocampal RyR2. FIG. 3A is a cryogenic electron microscopy structure of RyR2 (gray, top and side view) showing the location of the Ser2808 in the RY3&4 phosphorylation domain (magenta) and calstabin2 (cyan). RyR2 PKA phosphorylation shifted the channel toward a primed state (yellow) 50.
(§1) PTMs and functional abnormalities of neuronal RyR2 in HF hippocampal samples from MI mice were then evaluated and compared them to SHAM. Hippocampal RyR2 was immunoprecipitated and immunoblotted to detect PTMs.

hippocampal RyR2 [3] = target: T1, hippocampal RyR2; assay: single-channel recordings of RyR2 incorporated in planar lipid bilayers; type: in vivo; conditions: hippocampal RyR2 from treated MI mice; for RyR2 mean closed time / RyR2 mean open time: versus untreated MI
Method: FIG. 3E are graphs of RyR2 Po, To and Tc in the same groups as FIG. 3D. FIG. 3F is a graph of Ca^2+ leak measured in microsomes from mouse hippocampi of the same groups as FIG. 3D. […] Individual values are shown with the mean±s.e.m. […] Data are derived from biologically independent samples. All statistical tests were two sided.
as §1

MI mice = assay: hippocampal FDG metabolism by microPET; type: in vivo, mouse; conditions: treated MI mice; percentage of the FDG uptake in the SHAM mice (SHAM 100±3, MI 70±3)
From the text: FIG. 4A is a schematic representation of a hippocampal brain slice for LTP experiments and the positioning of the stimulating and recording electrodes.
Thereafter, [^18F]fluorodeoxyglucose (FDG) with positron emission tomography (PET) was used to measure energy consumption in neurons, which reflects neuronal communication signals and the integrative local neuronal activity. Deteriorating brain glucose metabolism measured by FDG-PET has been used as a clinical marker for Alzheimer's disease diagnosis. Thus, hippocampal FDG metabolism was evaluated in the experimental groups (FIGS. 4E and 4F).

SNARE signaling pathway = assay: immunoblots of SNAP25, VAMP8, SYT2 and CPLX3 in hippocampi; type: in vivo, mouse; conditions: hippocampi of treated MI mice
From the text: FIGS. 7A-7E illustrate altered synaptic protein expression in heart failure. […] The color map represents fold change of proteins (log 2 scale). […] FIGS. 7B and 7C are immunoblots showing total expression of SNAP25, VAMP8, SYT2 and CPLX3, normalized to GAPDH in the hippocampi of controls (n=4) and individuals with HF (n=9). Individual values are shown with the mean±s.e.m. (t-test *P<0.05, control versus individuals with HF). […] Individual values are shown with the mean #s.e.m. […] Data are derived from biologically independent samples. All statistical tests were two sided.
Based on the proteome data in the setting of defective Ca^2+ regulation, four proteins were selected for further study. These four proteins were from the most enriched synaptic transmission pathways that are regulated by Ca^2+, located near the synaptic membranes, involved in learning and memory process, and involved in neurotransmission as potential downstream signals of leaky RyR2. These selections included synaptosomal-associated protein 25 (SNAP25), vesicle-associated membrane protein 8 (VAMP8), synaptogamin-2 (SYT2) and complexin3 (CPLX3). We analyzed their protein expression levels by immunoblot in individuals with HF, and in SHAM and MI mice with or without each of the aforementioned treatments. […]

TGF-β pathway = assay: immunoblots of TGF-β, phosphorylated SMAD3 and NOX2 binding to RyR2 in hippocampi; type: in vivo, mouse; conditions: hippocampi of treated MI mice
From the text: FIG. 12A includes immunoblots showing expressing levels of TGF-β, phosphorylated SMAD3, total SMAD3, and NOX2 binding to RyR2 in the hippocampi of controls (n=4) and HF patients (n=9). FIG. 12B includes bar graphs depicting the ratio of TGF-β expression normalized to GAPDH, phosphorylated SMAD3 to total SMAD3 and NOX2 binding to RyR2 (IP RyR2). The same quantity of proteins was loaded on two separate gels and blotted separately for SMAD3 and pSMAD3. Individual values are shown with mean±SEM (t-test * p<0.05, Controls vs. HF patients). […] FIG. 12D includes bar graphs depicting the ratio of TGF-β expression normalized to GAPDH, phosphorylated SMAD3 to total SMAD3 and NOX2 binding to RyR2 (IP RyR2). The same quantity of proteins was loaded on two separate gels and blotted separately for SMAD3 and pSMAD3. Individual values are shown with mean±SEM. […] All statistical tests were two-sided. Data are derived from biologically independent samples.
TGF-β has been implicated in CNS disorders including Alzheimer's disease.

[4] = test system: Ca2+-dependent enzymes, Tau and amyloid beta pathway; assay: Alzheimer's disease-like signaling in hippocampal samples; type: in vivo, mouse; conditions: hippocampi of treated MI mice
From the text: Abnormal Ca^2+ regulation can contribute to the activation of Ca^2+-dependent enzymes such as AMP-activated protein kinase (AMPK), cyclin-dependent kinase 5 (CDK5) and enhanced calpain activity. Activation of these enzymes in response to elevated cytosolic Ca^2+ levels are upstream signals of both pTau and amyloid deposits in Alzheimer's disease brains and could be a major factor in the CD observed in HF. […] We also observed an increase in p25 expression, the neurotoxic activator of CDK5, which plays an important role in amyloid precursor protein processing in AD.

SMILES | target crossings [1] | time spent in the target quadrant [1] [s] | latency to find and reach the hidden platform [1] [s] | RyR2 nitrosylation (hippocampal RyR2 [2]) | RyR2 oxidation (hippocampal RyR2 [2]) | RyR2 phosphorylation (hippocampal RyR2 [2]) | calstabin2 binding to RyR2 (hippocampal RyR2 [2]) | RyR2 mean closed time (hippocampal RyR2 [3]) | RyR2 mean open time (hippocampal RyR2 [3]) | hippocampal FDG metabolism (MI mice) | expression of SNAP25, VAMP8, SYT2 and CPLX3 (SNARE signaling pathway) | NOX2 binding to hippocampal RyR2 (TGF-β pathway) | TGF-β levels (TGF-β pathway) | phosphorylation of SMAD3 (TGF-β pathway) | changes in AMPK, GSK3B, CaMKII, Tau phosphorylation, p25, BACE1 and βCTF [4] | RyR2 open probability (Po) (hippocampal RyR2 [3]; 150 nM Ca2+ cis, MI 0.17%±0.04%)
Fc1ccc(Cl)cc1-c1nc(Nc2ccncc2)c2nccnc2n1 [SD-208] | 4.5±0.6 | 27 ± 2 | 15 ± 3 | significantly decreased | significantly decreased | significantly decreased | enabled rebinding of calstabin2 | increased | decreased | 138±22 | restored the expression of these proteins to the control levels | significantly reduced | significantly reduced | significantly reduced | prevented/attenuated | 
CC(C)NCC(O)COc1cccc2ccccc12 (stereo not drawn) [propranolol] | 3.5±0.6 | 26 ± 2 | 17 ± 3 | significantly reduced |  | significantly reduced | restored calstabin2 binding | increased | decreased | 145±26 | restored the expression of these proteins to the control levels | significantly reduced | significantly reduced | significantly reduced | prevented/attenuated | 0.018%±0.020%
